Assay results reported in ChEMBL document CHEMBL3301361, “Experimental in vitro DMPK and physicochemical data on a set of publicly disclosed compounds”.
Values after ≈ are worked out from the molar mass of the structure shown.

What was measured:
in vitro [1] = conditions: SD, HW or BN, rat, plasma
in vitro [2] = conditions: human
in vitro [3] = conditions: hepatocytes
in vitro [4] = conditions: human, plasma
physchem [5] = conditions: octan-1-ol/water
physchem [6] = conditions: pH 7.4 buffer

Structure (SMILES)	fraction unbound at 5 h (in vitro [1])	microsomal CLint (in vitro [2]; liver microsomes)	hepatocyte CLint (in vitro [3])	fraction unbound at 5 h (in vitro [4]; PPB)	microsomal CLint (in vitro [2]; microsomes)	logD (physchem [5]; pH 7.4, LogD7.4)	solubility thermodynamic (physchem [6])	logD (physchem [5]; pH 7.4)	fraction unbound at 5 h (in vitro [4])
CN(CCCOCCOCCc1ccccc1)CCc1ccc(O)c2nc(O)sc12	0.24	35 µL/min/mg	> 150 µL/min/1e6 cells	0.0988					
O=c1[nH]c2c(O)ccc([C@@H](O)CN[C@H]3CCC[C@@H]3OCc3ccccc3)c2s1	0.179		108 µL/min/1e6 cells	0.069	26 µL/min/mg				
COc1cc2nnc(C(N)=O)c(Nc3ccc(F)cc3F)c2cc1N1CCN(C)CC1	0.157		16 µL/min/1e6 cells	0.0948	33 µL/min/mg	2.36			
Cc1ccccc1/N=N/c1ccc(NC(=O)c2ccnn2C)c(C)c1	0.0017		51 µL/min/1e6 cells		4 µL/min/mg		3.2 µM (≈ 1.07 µg/mL)		
Cc1ccc(N2CC(COc3ccc(-c4noc(C)n4)cc3)C2)nn1	0.0488		6 µL/min/1e6 cells	0.062	26.3 µL/min/mg	2.62	129 µM (≈ 43.5 µg/mL)		
Cc1ccc(S(=O)(=O)Nc2c(C(=O)NC3CCCCC3)c(C)nn2-c2ccccc2)cc1	0.0214	38 µL/min/mg	12 µL/min/1e6 cells	0.0014		1.68	1410 µM (≈ 639 µg/mL)		
Cc1ccc(S(=O)(=O)Nc2c(C(=O)NC3CCCCC3C)c(C)nn2-c2ccccc2)cc1 (stereo unspecified)	0.0224	58 µL/min/mg	17 µL/min/1e6 cells	0.0066		1.94			
Cc1ccc(S(=O)(=O)Nc2c(C(=O)NCC(C)(C)C)c(C)nn2-c2ccccc2)cc1	0.0335		18 µL/min/1e6 cells	0.0082	27 µL/min/mg	1.46			
CCC(C)NC(=O)c1c(C)nn(-c2ccccc2)c1NS(=O)(=O)c1ccc(C)cc1 (stereo unspecified)	0.0335		17.3 µL/min/1e6 cells	0.0059	15.7 µL/min/mg	0.66			
Cc1ccc(S(=O)(=O)Nc2c(C(=O)NC(C)C(C)(C)C)c(C)nn2-c2ccccc2)cc1 (stereo unspecified)	0.0457	31 µL/min/mg	7 µL/min/1e6 cells	0.0127		1.21			
Cc1ccc(S(=O)(=O)Nc2c(C(=O)N[C@H](C)C(C)(C)C)c(C)nn2-c2ccccc2)cc1	0.0374	42 µL/min/mg	8 µL/min/1e6 cells	0.0081		1.2	1000 µM (≈ 455 µg/mL)		
Cc1ccc(S(=O)(=O)Nc2c(C(=O)N[C@@H](C)C(C)(C)C)c(C)nn2CC(F)(F)F)cc1	0.0274	17 µL/min/mg	18 µL/min/1e6 cells	0.0142		0.93			
Cc1ccc(S(=O)(=O)Nc2c(C(=O)N[C@@H](C)C(C)(C)C)c(C)nn2C2CCCC2)cc1	0.0268		8 µL/min/1e6 cells	0.0214	21 µL/min/mg	2			
COCC(C)n1nc(C)c(C(=O)N[C@@H](C)C(C)(C)C)c1NS(=O)(=O)c1ccc(C)cc1 (stereo partly specified)	0.139	6 µL/min/mg	< 3 µL/min/1e6 cells	0.0836		0.61			
COCCC(C)n1nc(C)c(C(=O)N[C@@H](C)C(C)(C)C)c1NS(=O)(=O)c1ccc(C)cc1 (stereo partly specified)	0.276		9.9 µL/min/1e6 cells	0.101	3.9 µL/min/mg	0.78			
Cc1ccc(S(=O)(=O)Nc2c(C(=O)N[C@@H](C)C(C)(C)C)c(C)nn2C2CCSCC2)cc1	0.0661	25 µL/min/mg	5 µL/min/1e6 cells	0.0532		1.29	912 µM (≈ 437 µg/mL)		

Structure (SMILES)	fraction unbound at 5 h (in vitro [1])	microsomal CLint (in vitro [2]; liver microsomes)	hepatocyte CLint (in vitro [3])	fraction unbound at 5 h (in vitro [4]; PPB)	microsomal CLint (in vitro [2]; microsomes)	logD (physchem [5]; pH 7.4, LogD7.4)	solubility thermodynamic (physchem [6])	logD (physchem [5]; pH 7.4)	fraction unbound at 5 h (in vitro [4])
CCC[C@@H](CNC(=O)c1nc(Cl)c(N)nc1N)[N+](C)(C)CCCc1ccc(OC)cc1	0.454		24 µL/min/1e6 cells	0.511	87.1 µL/min/mg	0.4			
C[C@]12Cc3cnn(-c4ccc(F)cc4)c3C=C1CC[C@@]2(O)CCc1ccc(F)cc1C(N)=O	0.0046		52.5 µL/min/1e6 cells	0.0321	105 µL/min/mg	3.8			
Cc1c(Cl)ccc(OC2CCN(CC3CCN([C@@H](Cc4ccc(F)cc4)C(=O)O)CC3)CC2)c1Cl	0.232	< 3 µL/min/mg	13.8 µL/min/1e6 cells	0.0374					
C[C@@H]1CN(Cc2nnc(-c3cc(-c4cccc5[nH]ccc45)cc4[nH]ncc34)o2)C[C@H](C)O1	0.0313	107 µL/min/mg	55 µL/min/1e6 cells	0.0191		4.01			
CC(C)c1nc2ccccc2n1-c1nc(N2CCOCC2)c2nc(OC3CN(C4CCS(=O)(=O)CC4)C3)n(C)c2n1	0.22		10 µL/min/1e6 cells	0.22	20.4 µL/min/mg	2.9			
COc1ccc(CNC(=O)Nc2ncc([N+](=O)[O-])s2)cc1	0.0108	56 µL/min/mg	91 µL/min/1e6 cells	0.0032		2.9			
CC1(C)[C@@H]2CC[C@@]1(CS(=O)(=O)N1CCN(c3ccc(C(F)(F)F)cn3)CC1)C(=O)C2	0.0191	51 µL/min/mg	141 µL/min/1e6 cells	0.0092					
O=C(NCC1(O)CCCCCC1)c1cc(-c2ccccc2C(=O)O)ccc1Cl	0.0909	< 3 µL/min/mg	12.5 µL/min/1e6 cells	0.089		-0.34			
CCc1c2c(nc3ccc(O)cc13)-c1cc3c(c(=O)n1C2)COC(=O)[C@]3(O)CC [7-ETHYL-10-HYDROXYCAMPTOTHECIN]	0.0948		24 µL/min/1e6 cells		25.1 µL/min/mg	1.6			
COc1ccc([C@]2(C#N)CC[C@@H](C(=O)O)CC2)cc1OC1CCCC1 [CILOMILAST]	0.0606		28 µL/min/1e6 cells	0.0116	13 µL/min/mg	0.76			
CCc1cnn2c(NCc3ccc[n+]([O-])c3)cc(N3CCCC[C@H]3CCO)nc12 [DINACICLIB]	0.176		> 150 µL/min/1e6 cells	0.0988	> 150 µL/min/mg				
Cc1nc(-c2ccc(OCC(C)C)c(C#N)c2)sc1C(=O)O [FEBUXOSTAT]	0.0052		12.7 µL/min/1e6 cells		< 3 µL/min/mg	0.94			
CNCCC=C1c2ccccc2CCc2ccccc21 [NORTRIPTYLINE]	0.132		144 µL/min/1e6 cells	0.132	< 3 µL/min/mg	1.58			
COc1ccc(CC(C)(C)NC[C@H](O)c2cc(O)cc3c2OCC(=O)N3)cc1 [OLODATEROL]	0.443	14 µL/min/mg	14 µL/min/1e6 cells	0.409		0.79			
Cc1cccc([C@H](C)c2c[nH]c(=S)[nH]2)c1C [REZATOMIDINE]	0.19		25.7 µL/min/1e6 cells		24.6 µL/min/mg			2.9	0.17
